Experimental data published in patent US20210255193A1, “LYSINE REACTIVE PROBES AND USES THEREOF” (The Scripps Research Institute, priority 2017, published 2021).

What was measured:
Assay in all cases: competitive isoTOP-ABPP
Assay type in all cases: binding
[1] = target: T1, GBAS Protein NipSnap homolog 2 (Homo sapiens, UniProt O75323); conditions: for isoTOP-ABPP ratio (R) at liganded lysine O75323_K75: sol, 231
T1 construct: isoTOP-ABPP experiments performed in cell lysates (in vitro); endogenous in cells; host or cells: MDA-MB-231 soluble lysate
T1 sequence (O75323 24-286): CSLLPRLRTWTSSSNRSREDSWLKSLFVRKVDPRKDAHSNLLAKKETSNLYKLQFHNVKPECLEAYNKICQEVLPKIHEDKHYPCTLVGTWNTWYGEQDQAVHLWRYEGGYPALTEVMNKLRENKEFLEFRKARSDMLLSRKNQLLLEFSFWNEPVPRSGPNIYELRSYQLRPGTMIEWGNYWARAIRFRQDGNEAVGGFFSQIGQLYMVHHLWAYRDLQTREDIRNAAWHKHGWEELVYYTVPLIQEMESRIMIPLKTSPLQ
How it was run: (§1)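 Lysate + fragment (50 μM activated ester / 100 μM guanidinylating agent) or DMSO → 0.1 mM STP-alkyne, 1 h, RT → CuAAC to TEV tags (compound light, DMSO heavy) → LC-MS. R = heavy/light MS1 area; liganded lysine if R≥4.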

[2] = target: T2, GTPBP3 tRNA modification GTPase GTPBP3, mitochondrial (Homo sapiens, UniProt Q969Y2); conditions: for isoTOP-ABPP reactivity ratio at lysine Q969Y2_K492 / isoTOP-ABPP ratio (R) at liganded lysine Q969Y2_K492: 50 uM, in vitro; for isoTOP-ABPP reactivity ratio at lysine Q969Y2_K492: 231 sol; for isoTOP-ABPP ratio (R) at liganded lysine Q969Y2_K492: sol, 231
T2 construct: isoTOP-ABPP experiments performed in cell lysates (in vitro); endogenous in cells; host or cells: soluble proteome of human cancer cell lines (MDA-MB-231; Ramos and Jurkat also prepared)
T2 sequence (Q969Y2 21-492): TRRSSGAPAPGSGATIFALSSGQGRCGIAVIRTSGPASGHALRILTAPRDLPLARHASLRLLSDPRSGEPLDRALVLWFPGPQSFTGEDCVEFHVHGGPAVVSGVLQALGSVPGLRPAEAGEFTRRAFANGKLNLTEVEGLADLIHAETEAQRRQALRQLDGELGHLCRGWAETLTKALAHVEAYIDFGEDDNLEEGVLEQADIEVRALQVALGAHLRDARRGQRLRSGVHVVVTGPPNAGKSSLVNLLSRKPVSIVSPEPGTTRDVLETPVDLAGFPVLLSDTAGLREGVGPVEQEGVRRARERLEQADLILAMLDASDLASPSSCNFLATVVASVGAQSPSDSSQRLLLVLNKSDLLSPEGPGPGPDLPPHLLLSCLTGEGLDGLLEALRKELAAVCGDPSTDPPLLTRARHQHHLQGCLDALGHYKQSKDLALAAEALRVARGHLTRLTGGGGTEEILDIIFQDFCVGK
How it was run: as §1

[3] = target: T3, CNOT4 CCR4-NOT transcription complex subunit 4 (Homo sapiens, UniProt O95628); conditions: for isoTOP-ABPP ratio (R) at liganded lysine O95628_K134: sol, 231
T3 construct: isoTOP-ABPP experiments performed in cell lysates (in vitro); endogenous in cells; host or cells: MDA-MB-231 soluble lysate
T3 sequence (O95628 1-575): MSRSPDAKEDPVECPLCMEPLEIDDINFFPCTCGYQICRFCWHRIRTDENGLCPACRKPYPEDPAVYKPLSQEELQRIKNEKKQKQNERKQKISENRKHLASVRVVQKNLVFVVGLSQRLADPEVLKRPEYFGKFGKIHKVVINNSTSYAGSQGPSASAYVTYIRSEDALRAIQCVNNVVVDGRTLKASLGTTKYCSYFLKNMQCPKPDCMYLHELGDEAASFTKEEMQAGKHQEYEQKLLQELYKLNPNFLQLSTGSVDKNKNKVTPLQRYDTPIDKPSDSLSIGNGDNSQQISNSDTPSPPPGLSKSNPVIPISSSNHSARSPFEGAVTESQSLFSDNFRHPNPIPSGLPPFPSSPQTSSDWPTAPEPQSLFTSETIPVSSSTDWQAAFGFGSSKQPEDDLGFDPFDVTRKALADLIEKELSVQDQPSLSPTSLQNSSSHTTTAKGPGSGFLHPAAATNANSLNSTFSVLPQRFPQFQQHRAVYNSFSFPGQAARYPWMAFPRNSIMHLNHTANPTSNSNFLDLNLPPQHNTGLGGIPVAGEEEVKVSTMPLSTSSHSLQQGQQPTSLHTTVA
How it was run: as §1

| Structure (SMILES) | isoTOP-ABPP reactivity ratio at lysine O75323_K75 ([1]; 50 uM, 231 sol, in vitro) | isoTOP-ABPP reactivity ratio at lysine Q969Y2_K492 [2] | isoTOP-ABPP reactivity ratio at lysine O95628_K134 ([3]; 50 uM, 231 sol, in vitro) | further results |
| --- | --- | --- | --- | --- |
| O=C(Oc1ccc([N+](=O)[O-])cc1[N+](=O)[O-])C(c1ccccc1)c1ccccc1 [fragment 30, 2,4-Dinitrophenyl 2,2-diphenylacetate] | 1.1 | 1.5 | 1.2 |  |
| O=C(Oc1ccc([N+](=O)[O-])cc1[N+](=O)[O-])c1cc(C(F)(F)F)cc(C(F)(F)F)c1 [fragment 31, 2,4-Dinitrophenyl 3,5-bis(trifluoromethyl)benzoate] | 0.8 | 1.4 | 4.3 |  |
| CC(=O)Oc1ccc([N+](=O)[O-])cc1[N+](=O)[O-] [fragment 43, 2,4-Dinitrophenyl acetate] |  |  |  | isoTOP-ABPP ratio (R) at liganded lysine O75323_K75 ([1]; 50 uM, in vitro): 1.6; isoTOP-ABPP ratio (R) at liganded lysine Q969Y2_K492 [2]: 1.5; isoTOP-ABPP ratio (R) at liganded lysine O95628_K134 ([3]; 50 uM, in vitro): 1.3 |
| Cn1cc(CC(=O)Oc2ccc([N+](=O)[O-])cc2[N+](=O)[O-])c2ccccc21 [fragment 32, 2,4-Dinitrophenyl 2-(1-methyl-1H-indol-3-yl)acetate] |  | 1.8 | 2.1 |  |
| NC(=O)c1cc(C(F)(F)F)cc(C(F)(F)F)c1 [fragment 51, reference compound] |  |  |  | isoTOP-ABPP ratio, lysine O75323_K75 ([1]; 50 uM_231_sol_in vitro): 0.9; isoTOP-ABPP ratio, lysine O95628_K134 ([3]; 50 uM_231_sol_in vitro): 0.9 |
| O=C(Oc1ccc([N+](=O)[O-])cc1[N+](=O)[O-])C1CCN(C(=O)OCc2ccccc2)CC1 [fragment 34, 1-Benzyl 4-(2,4-dinitrophenyl) piperidine-1,4-dicarboxylate] |  |  |  | isoTOP-ABPP ratio (R) at liganded lysine Q969Y2_K492 [2]: 1.6; isoTOP-ABPP ratio (R) at liganded lysine O95628_K134 ([3]; 50 uM, in vitro): 1.1 |
| O=C(CCc1coc2cc(F)ccc2c1=O)Oc1ccc([N+](=O)[O-])cc1[N+](=O)[O-] [fragment 36, 2,4-Dinitrophenyl 3-(7-fluoro-4-oxo-4H-chromen-3-yl)propanoate] |  |  |  | isoTOP-ABPP ratio (R) at liganded lysine O75323_K75 ([1]; 50 uM, in vitro): 20.0; isoTOP-ABPP ratio (R) at liganded lysine Q969Y2_K492 [2]: 2.9 |
| COC(=O)NC(=NC(=O)OCC1c2ccccc2-c2ccccc21)n1cccn1 [fragment 49, N-Methoxycarbonyl-N′-9-fluorenylmethoxycarbonyl-pyrazole-1-carboxamidine] |  |  |  | isoTOP-ABPP ratio, lysine O75323_K75 ([1]; 100 uM_231_sol_in vitro): 1.7; isoTOP-ABPP ratio, lysine O95628_K134 ([3]; 100 uM_231_sol_in vitro): 1.4 |
| CCn1cc(C(=O)Oc2c(F)c(F)c(F)c(F)c2F)c(=O)c2ccc(C)nc21 [fragment 28, Pentafluorophenyl 1-ethyl-7-methyl-4-oxo-1,4-dihydro-1,8-naphthyridine-3-carboxylate] | 1.0 |  | 1.0 |  |
| O=C(CCc1cn(-c2ccccc2)nc1-c1ccccc1)Oc1c(F)c(F)c(F)c(F)c1F [fragment 19, Pentafluorophenyl 3-(1,3-diphenyl-1H-pyrazol-4-yl)propanoate] |  |  |  | R value (DMSO/fragment) for probe 1 labeling ([1]; O75323_K75, 50 uM, 231 sol, in vitro): 1.0; R value (DMSO/fragment) for probe 1 labeling ([3]; O95628_K134, 50 uM, 231 sol, in vitro): 1.1 |
| O=C(Oc1c(F)c(F)cc(F)c1F)c1cc(C(F)(F)F)cc(C(F)(F)F)c1 [fragment 48, 2,3,5,6-Tetrafluorophenyl 3,5-bis(trifluoromethyl)benzoate] |  |  |  | isoTOP-ABPP ratio, lysine O75323_K75 ([1]; 50 uM_231_sol_in vitro): 0.9; isoTOP-ABPP ratio, lysine Q969Y2_K492 ([2]; 50 uM_231_sol_in vitro): 1.4 |

Further lines, with some results ahead:

| isoTOP-ABPP reactivity ratio at lysine O75323_K75 ([1]; 50 uM, 231 sol, in vitro) | Structure (SMILES) | isoTOP-ABPP reactivity ratio at lysine Q969Y2_K492 [2] | isoTOP-ABPP reactivity ratio at lysine O95628_K134 ([3]; 50 uM, 231 sol, in vitro) | further results |
| --- | --- | --- | --- | --- |
| 20.0 | O=C(CN1C(=O)c2ccccc2C1=O)Oc1c(F)c(F)c(F)c(F)c1F [fragment 27, Pentafluorophenyl 2-(1,3-dioxoisoindolin-2-yl)acetate] | 1.6 | 1.2 |  |
| 1.0 | O=C(Oc1c(F)c(F)c(F)c(F)c1F)C1CCN(C(=O)OCc2ccccc2)CC1 [fragment 24, 1-Benzyl 4-(pentafluorophenyl) piperidine-1,4-dicarboxylate] |  | 1.0 |  |
